In brackets after ≈: the same amount, converted by molar mass. Read-outs that look alike come from different tables or passages of the source. *1 amine or outer side, *2 acyl side, *3 side chain or, on linkers, in order; H or OH if unused. Where a SMILES comes first, the peptide text is derived from it. [ ]: non-standard residue; d: D form. The star is where a group is joined. X2 = O=C(COC1CCCCCc2c1nnn2[C@@H]1O[C@H](CO)[C@H](O)[C@H](O)[C@H]1O)*; NH(1-deoxy-D-glucityl) = OC[C@@H](O)[C@@H](O)[C@H](O)[C@@H](O)CN*; Dolaproine = CO[C@@H]([C@@H]1CCCN1)[C@@H](C)C(=O)O; Dil = CC[C@H](C)[C@H](NC)[C@@H](CC(=O)O)OC; PABC = O=C(OCc1ccc(N[*:1])cc1)[*:2]; DBCO = C1#Cc2ccccc2N(*)Cc2ccccc21; X1 = C[C@@H](N*)[C@@H](O)c1ccccc1; Cit = NC(=O)NCCC[C@H](N)C(=O)O; PEG4 = NCCOCCOCCOCCOCCC(=O)O; Suc = O=C(CCC(=O)[*:2])[*:1]; NMeV = CN[C@H](C(=O)O)C(C)C
Assays:
[1] = pH stability in buffers, determined by LC-MS; format: physicochemical; conditions: pH7.4 and 8 buffer, RT, Table 3-1
Procedure: pH stability was assessed as follows. 0.1 mg of sample was dissolved into 0.2-0.3 mL of DMSO, and the resulting solution was added dropwise into different pH buffers (1 mL) while maintain clear solutions during testing time period. The samples were collected from several time points (e.g., over 72 hours), and pH stability was determined by LC-MS. pH buffer was prepared as follows: pH 8.0 sodium borate buffer: Add 9.534 g Sodium borate decahydrate, 1.461 g Sodium chloride, and 0.393 g DTPA to 900 mL distilled water, make sure all powers dissolve completely, then make final volume to 1 L by adding water. pH 7.4 sodium borate buffer: Add […], 9.534 g Sodium borate decahydrate, 1.461 g Sodium chloride, and 0.393 g DTPA to 900 mL distilled water, make sure all powers dissolve completely, then make final volume to 1 L by adding water. pH 5.0 succinate acid buffer: Add 10 mM succinate acid to 150 mL distilled water, and then change the pH to pH5.0 by adding 0.5M NaOH, then make final volume to 250 mL by adding water. pH 7.4 PBS buffer: commercially available. Stability was assessed at 72 hours by LCMS.

Human liver Cathepsin B = Human liver Cathepsin B (Homo sapiens, UniProt P07858); assay: Cathepsin B cleavage assay of linker-payloads; conditions: Table 1D
Procedure: For the assay, the linker-payload stock solution (10 mM of linker-payload in DMSO) was added into a solution of 100 mM NaOAc, 10 mM dithiothreitol, at pH5 to obtain a 50 μM substrate solution. […] The Cathepsin B and substrate solution was mixed with and without 10 mM of a Cathepsin B inhibitor (CA074; APE Bio, Cat #A1926), and incubated at 37° C. for 4 hours. Following the 4 hour incubation, acetic acid and then acetonitrile were added to stop the reaction. The quenched samples then underwent centrifugation at 14,000 rpm. Aliquots of the resultant supernatants were then diluted with equal volume of water and analyzed by LC/MS to determine the amount of payload released.

Procedure for physchem: The DMSO solution (1 mg/mL, 0.5 mL) was diluted with water (4.5 mL) to generate solution A (0.1 mg/mL, 5 mL, 0.5 mg). Solution A (0.1 mg/mL, 0.5 mL) was diluted with water (4.5 mL) to generate solution B (0.01 mg/mL, 5 mL, 0.05 mg). Solution B (0.01 mg/mL, 0.5 mL) was diluted with water (4.5 mL) to generate solution C (1 μg/mL, 5 mL, 5 μg). Solution C (1 μg/mL, 0.5 mL) was diluted with water (4.5 mL) to generate solution D (0.1 μg/mL, 5 mL, 0.5 μg). The testing sample (0.05 mg) was suspended in water (1 mL), and was sonicated for 5-30 min to dissolve the sample. If no clear solution was observed, the resulting suspension was centrifuged and the clear supernatant solution was collected for analysis. All the standard solutions A, B, C, D and sample solutions were tested using same method on the same LC-MS instrument. Solubility was assessed by LCMS and calculated based on a standard curve.

Structure (SMILES) | pH Stability [1] | solubility (physchem) [µg/mL] | CapB cleavage rate (%) at 4 hrs (Human liver Cathepsin B) [%] | solubility (physchem; Solubility) [µg/mL] | solubility (physchem; Solubility (mg/mL)) [µg/mL]
CC[C@H](C)[C@@H]([C@@H](CC(=O)N1CCC[C@H]1[C@H](OC)[C@@H](C)C(=O)N[C@H](C)[C@@H](O)c1ccccc1)OC)N(C)C(=O)[C@@H](NC(=O)[C@H](C(C)C)N(C)C(=O)OCc1ccc(NC(=O)[C@H](CCCNC(N)=O)NC(=O)[C@@H](NC(=O)[C@@H](CCCCNC(=O)COC2CCCCCc3c2nnn3[C@@H]2O[C@H](CO)[C@H](O)[C@H](O)[C@H]2O)NC(=O)CCOCCOCCOCCOCCNC(=O)CCC(=O)N2Cc3ccccc3C#Cc3ccccc32)C(C)C)cc1)C(C)C (stereo partly shown) [Ie-1] ({DBCO-Suc-PEG4}-[dK](X2)V[Cit][PABC][NMeV]V[Dil][Dolaproine]-X1) | Y (stable in pH7.4 and 8 buffer at RT for more than 3 days) | 400 (≈ 186 µM) | 72 |  | 
CCCC1O[C@@H]2C[C@H]3[C@@H]4C[C@H](F)C5=CC(=O)C=C[C@]5(C)[C@@]4(F)[C@@H](O)C[C@]3(C)[C@]2(C(=O)COc2ccc(NC(=O)OCc3ccc(NC(=O)[C@H](CCCNC(N)=O)NC(=O)[C@@H](NC(=O)CCOCCOCCOCCOCCNC(=O)CCC(=O)N4Cc5ccccc5C#Cc5ccccc54)C(C)C)cc3)cc2)O1 (stereo partly shown) [10c] | Y (stable in pH7.4 and 8 buffer at RT for more than 3 days) |  | <5 | < 10 | < 100
CC[C@H](C)[C@@H]([C@@H](CC(=O)N1CCC[C@H]1[C@H](OC)[C@@H](C)C(=O)N[C@H](C)[C@@H](O)c1ccccc1)OC)N(C)C(=O)[C@@H](NC(=O)[C@H](C(C)C)N(C)C(=O)OCc1ccc(NC(=O)[C@H](CCCNC(N)=O)NC(=O)[C@@H](NC(=O)[C@@H](CCC(=O)NC[C@H](O)[C@@H](O)[C@H](O)[C@H](O)CO)NC(=O)CCOCCOCCOCCOCCNC(=O)CCC(=O)N2Cc3ccccc3C#Cc3ccccc32)C(C)C)cc1)C(C)C [Ig] ({DBCO-Suc-PEG4}-[dE](NH(1-deoxy-D-glucityl))V[Cit][PABC][NMeV]V[Dil][Dolaproine]-X1) | Y (stable in pH7.4 and 8 buffer at RT for more than 3 days) | 280 (≈ 144 µM) | 70 |  | 
